Data published in patent US9434711B2 (Janssen Pharmaceutica, NV, priority 2007, dated 2016).

Biological target: canine TRPM8 (Canis lupus familiaris, UniProt Q1A7N1)
Assay: In Vitro Canine TRPM8 Functional Assay (Ca2+ fluorescence, icilin activation)
Type: cell-based
Settings: for IC50: HEK293 cells stably expressing canine TRPM8, icilin activation, eight-point dose-response, read-out: IC50; for inhibition at 0.2 µM / % Inh @ 0.2 (μM): compound at 0.2 μM; for inhibition at 0.2 µM: read-out: % Inh @ 0.2
Summary of the method: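 HEK293 cells stably expressing canine TRPM8 loaded with Calcium 3 dye; compound added and Ca2+ fluorescence monitored 5 min before icilin at a final level giving ~80% maximal response, read on FLIPR or FDSS. EC50 or IC50 from eight-point dose-response, quadruplicate wells per point.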

[1] = canine TRPM8, icilin activation

canine TRPM8, sequence (Q1A7N1 1-1104): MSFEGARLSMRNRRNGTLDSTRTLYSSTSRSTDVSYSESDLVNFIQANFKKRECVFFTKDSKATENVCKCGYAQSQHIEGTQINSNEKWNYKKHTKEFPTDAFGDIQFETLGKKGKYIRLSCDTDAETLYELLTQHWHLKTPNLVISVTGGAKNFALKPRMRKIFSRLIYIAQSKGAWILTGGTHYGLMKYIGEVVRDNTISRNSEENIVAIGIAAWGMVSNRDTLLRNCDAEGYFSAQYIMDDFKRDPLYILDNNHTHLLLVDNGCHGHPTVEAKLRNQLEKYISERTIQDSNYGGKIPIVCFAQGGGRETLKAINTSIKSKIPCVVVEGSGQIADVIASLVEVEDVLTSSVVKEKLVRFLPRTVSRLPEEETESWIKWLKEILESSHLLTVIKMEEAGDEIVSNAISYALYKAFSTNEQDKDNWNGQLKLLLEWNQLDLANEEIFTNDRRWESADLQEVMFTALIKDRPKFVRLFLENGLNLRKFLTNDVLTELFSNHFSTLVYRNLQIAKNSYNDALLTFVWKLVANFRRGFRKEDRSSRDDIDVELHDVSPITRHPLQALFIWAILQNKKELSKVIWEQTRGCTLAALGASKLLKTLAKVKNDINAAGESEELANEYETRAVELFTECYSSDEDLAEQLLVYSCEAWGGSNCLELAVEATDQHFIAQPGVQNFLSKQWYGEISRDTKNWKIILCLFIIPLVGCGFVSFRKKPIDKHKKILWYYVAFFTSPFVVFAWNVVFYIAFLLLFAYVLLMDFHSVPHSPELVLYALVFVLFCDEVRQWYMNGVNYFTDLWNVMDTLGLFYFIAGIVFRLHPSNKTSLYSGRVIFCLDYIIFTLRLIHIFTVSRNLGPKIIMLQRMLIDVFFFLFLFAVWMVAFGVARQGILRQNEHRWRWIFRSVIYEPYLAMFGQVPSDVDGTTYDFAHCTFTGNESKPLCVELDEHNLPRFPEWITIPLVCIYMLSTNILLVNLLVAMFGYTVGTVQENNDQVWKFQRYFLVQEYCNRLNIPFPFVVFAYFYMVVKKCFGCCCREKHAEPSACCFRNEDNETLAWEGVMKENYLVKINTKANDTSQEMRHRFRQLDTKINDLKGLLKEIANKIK

Row | SMILES | IC50 | inhibition at 0.2 µM [1] | inhibition at 0.5 µM (compound at 0.5 μM, canine TRPM8, icilin activation, read-out: % Inh @ 0.5) | % Inh @ 0.2 (μM) [1]
1 | O=S(=O)(c1ccc(O)cc1)N(Cc1ccc(F)c(C(F)(F)F)c1)c1sc2ccccc2c1Br [Compound 290, N-(3-Bromo-benzo[b]thiophen-2-yl)-N-(4-fluoro-3-trifluoromethyl-benzyl)-4-hydroxy-benzenesulfonamide] | 0.0053 µM | 103% |  | 
2 | O=S(=O)(c1cccc(O)c1)N(Cc1ccc(F)c(C(F)(F)F)c1)c1sc2ccccc2c1Br [Compound 291, N-(3-Bromo-benzo[b]thiophen-2-yl)-N-(4-fluoro-3-trifluoromethyl-benzyl)-3-hydroxy-benzenesulfonamide] | 0.0058 µM | 101% |  | 
3 | O=C(O)c1cccc(S(=O)(=O)N(Cc2ccc(F)c(C(F)(F)F)c2)c2sc3ccccc3c2Br)c1 [Compound 293, N-(3-Bromo-benzo[b]thiophen-2-yl)-N-(4-fluoro-3-trifluoromethyl-benzyl)-3-carboxy-benzenesulfonamide] | 0.0078 µM | 101% | 101% | 
4 | O=C(O)c1ccc(S(=O)(=O)N(Cc2ccc(F)c(C(F)(F)F)c2)c2sc3ccccc3c2Cl)cc1 [Compound 294, N-(3-Chloro-benzo[b]thiophen-2-yl)-N-(4-fluoro-3-trifluoromethyl-benzyl)-4-carboxy-benzenesulfonamide] | 0.0018 µM | 99% |  | 
5 | O=C(O)c1cccc(S(=O)(=O)N(Cc2ccc(F)c(C(F)(F)F)c2)c2cc3ccccc3s2)c1 [Compound 295, N-(Benzo[b]thiophen-2-yl)-N-(4-fluoro-3-trifluoromethyl-benzyl)-3-carboxy-benzenesulfonamide] | 0.033 µM | 81% |  | 
6 | O=C(O)c1ccc(S(=O)(=O)N(Cc2ccc(F)c(C(F)(F)F)c2)c2cc3ccccc3s2)cc1 [Compound 296, N-(Benzo[b]thiophen-2-yl)-N-(4-fluoro-3-trifluoromethyl-benzyl)-4-carboxy-benzenesulfonamide] | 0.002 µM | 96% |  | 
7 | O=C(O)c1ccccc1S(=O)(=O)N(Cc1ccc(F)c(C(F)(F)F)c1)c1sc2ccccc2c1Cl [Compound 297, N-(3-Chloro-benzo[b]thiophen-2-yl)-N-(4-fluoro-3-trifluoromethyl-benzyl)-2-carboxy-benzenesulfonamide] |  | 21% |  | 
8 | O=C(O)c1ccccc1S(=O)(=O)N(Cc1ccc(F)c(C(F)(F)F)c1)c1sc2ccccc2c1Br [Compound 298, N-(3-Bromo-benzo[b]thiophen-2-yl)-N-(4-fluoro-3-trifluoromethyl-benzyl)-2-carboxy-benzenesulfonamide] |  | 18% |  | 
9 | O=Cc1c(N(Cc2ccc(F)c(C(F)(F)F)c2)S(=O)(=O)c2ccc(C(=O)O)cc2)sc2ccccc12 [Compound 299, N-(3-Formyl-benzo[b]thiophen-2-yl)-N-(4-fluoro-3-trifluoromethyl-benzyl)-4-carboxy-benzenesulfonamide] | 0.003 µM | 90% |  | 
10 | NS(=O)(=O)N(Cc1ccc(F)c(C(F)(F)F)c1)c1cc2ccccc2s1 [Compound 300, N-(Benzo[b]thiophen-2-yl)-N-(4-fluoro-3-trifluoromethyl-benzyl)-sulfamide] |  | 21% |  | 
11 | NS(=O)(=O)N(Cc1ccc(F)c(C(F)(F)F)c1)c1sc2ccccc2c1Br [Compound 301, N-(3-Bromo-benzo[b]thiophen-2-yl)-N (4-fluoro-3-trifluoromethyl-benzyl)-sulfamide] |  |  |  | 63%
12 | NS(=O)(=O)N(Cc1ccc(F)c(C(F)(F)F)c1)c1sc2ccccc2c1Cl [Compound 302, N-(3-Chloro-benzo[b]thiophen-2-yl)-N-(4-fluoro-3-trifluoromethyl-benzyl)-sulfamide] |  | 50% |  | 
13 | NS(=O)(=O)N(CC1CC1)c1sc2ccccc2c1Br [Compound 303, N-(3-Bromo-benzo[b]thiophen-2-yl)-N-(cyclopropylmethyl)-sulfamide] |  | 56% |  | 
14 | NS(=O)(=O)N(CCC(F)(F)F)c1sc2ccccc2c1Br [Compound 304, N-(3-Bromo-benzo[b]thiophen-2-yl)-N-(3,3,3-trifluoro-propyl)-sulfamide] |  | 29% |  | 
15 | Cc1c(N(Cc2ccc(F)c(C(F)(F)F)c2)S(=O)(=O)c2cccc(C(=O)O)c2)sc2ccccc12 [Compound 305, N-(3-Methyl-benzo[b]thiophen-2-yl)-N-(4-fluoro-3-trifluoromethyl-benzyl)-3-carboxy-benzenesulfonamide] | 0.012 µM | 97% |  | 
16 | O=C(O)c1cccc(S(=O)(=O)N(Cc2ccc(F)c(C(F)(F)F)c2)c2sc3ccccc3c2Cl)c1 [Compound 307, N-(3-Chloro-benzo[b]thiophen-2-yl)-N-(4-fluoro-3-trifluoromethyl-benzyl)-3-carboxy-benzenesulfonamide] | 0.0151 µM | 101% |  | 

Row | SMILES | IC50 | inhibition at 0.2 µM [1] | inhibition at 0.5 µM (compound at 0.5 μM, canine TRPM8, icilin activation, read-out: % Inh @ 0.5) | % Inh @ 0.2 (μM) [1]
17 | CC(=O)c1ccc(S(=O)(=O)N(Cc2ccc(F)c(C(F)(F)F)c2)c2cc3ccccc3s2)cc1 [Compound 308, N-(Benzo[b]thiophen-2-yl)-N-(4-fluoro-3-trifluoromethyl-benzyl)-4-acetyl-benzenesulfonamide] | 0.0698 µM | 92% |  | 
18 | CNS(=O)(=O)N(Cc1ccc(F)c(C(F)(F)F)c1)c1sc2ccccc2c1Cl [Compound 309, N-(3-Chloro-benzo[b]thiophen-2-yl)-N-(4-fluoro-3-trifluoromethyl-benzyl)-N′-methyl-sulfamide] | 0.055 µM | 93% |  | 
19 | O=S(=O)(c1cccnc1Cl)N(Cc1ccc(F)c(C(F)(F)F)c1)c1cc2ccccc2s1 [Compound 310, N-(Benzo[b]thiophen-2-yl)-N-(4-fluoro-3-trifluoromethyl-benzyl)-2-chloro-pyridin-3-ylsulfonamide] |  | 69% |  | 
20 | O=S(=O)(c1ccc(Cl)nc1)N(Cc1ccc(F)c(C(F)(F)F)c1)c1cc2ccccc2s1 [Compound 311, N-(Benzo[b]thiophen-2-yl)-N-(4-fluoro-3-trifluoromethyl-benzyl)-2-chloro-pyridin-5-ylsulfonamide] | 0.148 µM | 82% |  | 
21 | CC(=O)c1ccc(S(=O)(=O)N(Cc2ccc(F)c(C(F)(F)F)c2)c2sc3ccccc3c2Br)cc1 [Compound 312, N-(3-Bromo-benzo[b]thiophen-2-yl)-N-(4-fluoro-3-trifluoromethyl-benzyl)-4-acetyl-benzenesulfonamide] | 0.011 µM | 102% |  | 
22 | COC(=O)c1ccc(S(=O)(=O)N(Cc2ccc(F)c(C(F)(F)F)c2)c2sc3ccccc3c2C(C)=O)cc1 [Compound 313, N-(3-Acetyl-benzo[b]thiophen-2-yl)-N-(4-fluoro-3-trifluoromethyl-benzyl)-4-carbomethoxy-benzenesulfonamide] | 0.021 µM | 102% |  | 
23 | CC(=O)c1c(N(Cc2ccc(F)c(C(F)(F)F)c2)S(=O)(=O)c2ccccc2)sc2ccccc12 [Compound 314, N-(3-Acetyl-benzo[b]thiophen-2-yl)-N-(4-fluoro-3-trifluoromethyl-benzyl)-benzenesulfonamide] | 0.01 µM | 102% |  | 
24 | CN(C)S(=O)(=O)N(Cc1ccc(F)c(C(F)(F)F)c1)c1cc2ccccc2s1 [Compound 315, N-(Benzo[b]thiophen-2-yl)-N-(4-fluoro-3-trifluoromethyl-benzyl)-N′,N′-dimethlysulfamide] | 0.064 µM |  |  | 99%
25 | CC(C)(O)c1c(N(Cc2ccc(F)c(C(F)(F)F)c2)S(=O)(=O)c2ccccc2)sc2ccccc12 [Compound 316, N-(4-Fluoro-3-trifluoromethyl-benzyl)-N-[3-(1-hydroxy-1-methyl-ethyl)-benzo[b]thiophen-2-yl]-benzenesulfonamide] | 0.01 µM | 101% |  | 
26 | CN(C)S(=O)(=O)N(Cc1ccc(F)c(C(F)(F)F)c1)c1sc2ccccc2c1Br [Compound 317, N-(3-Bromo-benzo[b]thiophen-2-yl)-N-(4-fluoro-3-trifluoromethyl-benzyl)-N′,N′-dimethlysulfamide] | 0.017 µM |  |  | 102%
27 | CC(=O)c1c(N(Cc2ccc(F)c(C(F)(F)F)c2)S(=O)(=O)c2ccc(C(=O)O)cc2)sc2ccccc12 [Compound 318, N-(3-Acetyl-benzo[b]thiophen-2-yl)-N-(4-fluoro-3-trifluoromethyl-benzyl)-4-carboxy-benzenesulfonamide] | 0.015 µM | 101% |  | 
28 | O=S(=O)(c1cccnc1Cl)N(Cc1ccc(F)c(C(F)(F)F)c1)c1sc2ccccc2c1Br [Compound 319, N-(3-Bromo-benzo[b]thiophen-2-yl)-N-(4-fluoro-3-trifluoromethyl-benzyl)-2-chloro-pyridin-3-ylsulfonamide] | 0.024 µM | 100% |  | 
29 | O=S(=O)(c1ccc(Cl)nc1)N(Cc1ccc(F)c(C(F)(F)F)c1)c1sc2ccccc2c1Br [Compound 320, N-(3-Bromo-benzo[b]thiophen-2-yl)-N-(4-fluoro-3-trifluoromethyl-benzyl)-2-chloro-pyridin-5-ylsulfonamide] | 0.01 µM | 100% |  | 
30 | O=S(=O)(c1cccnc1Cl)N(Cc1ccc(F)c(C(F)(F)F)c1)c1sc2ccccc2c1Cl [Compound 321, N-(3-Chloro-benzo[b]thiophen-2-yl)-N-(4-fluoro-3-trifluoromethyl-benzyl)-2-chloro-pyridin-3-ylsulfonamide] | 0.07 µM | 81% |  | 
31 | O=S(=O)(c1cccnc1)N(Cc1ccc(C(F)(F)F)c(F)c1)c1sc2ccccc2c1Br [Compound 322, N-(3-Bromo-benzo[b]thiophen-2-yl)-N-(3-fluoro-4-trifluoromethyl-benzyl)-pyridin-3-ylsulfonamide] | 0.01 µM | 99% |  | 
32 | O=S(=O)(c1cccnc1)N(Cc1ccc(OC(F)(F)F)cc1)c1sc2ccccc2c1Br [Compound 323, N-(3-Bromo-benzo[b]thiophen-2-yl)-N-(4-trifluoromethoxy-benzyl)-pyridin-3-ylsulfonamide] | 0.01 µM | 102% |  | 
